Measured values from ChEMBL document CHEMBL2034878, “Chiral resolution, absolute configuration assignment and biological activity of racemic diarylpyrimidine CH(OH)-DAPY as potent nonnucleoside HIV-1 reverse transcriptase inhibitors” (Eur J Med Chem, 2012).

Legend:
[1] = tested on: Human immunodeficiency virus 1; test: Antiviral activity against HIV1 RES056 harboring K103N/Y181C RT mutant infected in MT4 cells assessed as inhibition of virus-induced cytopathic effect after 5 days by MTT assay; format: functional, organism-based; details: Human immunodeficiency virus 1, RES056, MT4, 120 h
[2] = Cytotoxicity against human MT4 cells after 5 days by MTT assay; format: cell-based
[3] = Selectivity index ratio of CC50 for human MT4 cells to EC50 for HIV1 3B; format: toxicity, cell-based; details: read-out: Ratio CC50/EC50
[4] = tested on: Human immunodeficiency virus 1; test: Antiviral activity against HIV1 3B harboring wild type RT infected in MT4 cells assessed as inhibition of virus-induced cytopathic effect after 5 days by MTT assay; format: functional, organism-based; details: Human immunodeficiency virus 1, 3B, MT4, 120 h
[5] = tested on: Human immunodeficiency virus 2; test: Antiviral activity against HIV2 ROD […] infected in MT4 cells assessed as inhibition of virus-induced cytopathic effect after 5 days by MTT assay; format: functional, organism-based; details: Human immunodeficiency virus 2, ISOLATE ROD, MT4, 120 h
[6] = target: Human immunodeficiency virus type 1 reverse transcriptase (Human immunodeficiency virus 1, UniProt Q72547); test: Inhibition of HIV1 wildtype reverse transcriptase using poly(rA)/oligo(dT)15 as template by colometric streptavidin alkaline phosphate reporter assay

Compound | EC50 [1] [µM] | CC50 at 120 h [2] [µM] | selectivity ratio [3] | EC50 [4] [µM] | EC50 [5] [µM] | IC50 [6] [µM]
CC(C)Nc1cccnc1N1CCN(C(=O)c2cc3cc(NS(C)(=O)=O)ccc3[nH]2)CC1 [DELAVIRDINE] | > 4.39 | > 4.4 | > 274 |  |  | 
N#Cc1ccc(Nc2nccc([C@@H](O)c3ccccc3Cl)n2)cc1 | 8.8 | 25 | 373 | 0.065 | 11 | 
Cc1cn([C@H]2C[C@H](N=[N+]=[N-])[C@@H](CO)O2)c(=O)[nH]c1=O [ZIDOVUDINE] |  | ≥ 46 | ≥ 6360 |  | 0.007 | 
Cc1cc(C#N)cc(C)c1Oc1nc(Nc2ccc(C#N)cc2)nc(N)c1Br [ETRAVIRINE] |  | 28 |  | 0.002 | > 28 | 
N#Cc1ccc(Nc2nccc(C(O)c3ccccc3Cl)n2)cc1 (racemic) | 9.4 | 29 | 3230 |  | 7.6 | 0.45
Cc1ccnc2c1NC(=O)c1cccnc1N2C1CC1 [NEVIRAPINE] |  | > 15 |  |  | > 15 | 
N#Cc1ccc(Nc2nccc([C@H](O)c3ccccc3Cl)n2)cc1 | > 36 | 36 | 6800 | 0.005 | > 36 | 
O=C1Nc2ccc(Cl)cc2[C@@](C#CC2CC2)(C(F)(F)F)O1 [EFAVIRENZ] | 0.44 | > 6.3 |  |  |  | 
